Source: patent publication EP2623098B1, “Amide Amino Acid Esters of Nonsteroidal Anti-Inflammatory Drugs (NSAIDs) as Potent Inhibitors of Tumor Cell Growth” (King Saud University, priority 2012, dated 2013)

The compounds below were run on HT-29 human colon adenocarcinoma cells (assay: Tumor cell growth inhibition assay (Cell Titer Glo, cell viability), HT-29). Details: HT-29 cells, 72 hours treatment.
Format: cell-based
Protocol: The human colon adenocarcinoma cell lines were obtained from ATCC and grown under standard cell culture conditions in RPMI 1640 medium containing 5% fetal bovine serum (FBS) at 37°C in a humidified atmosphere with 5% CO2.
Tissue culture treated 96-well microtiter plates were seeded at a density of 5,000 cells/well. For growth inhibition assays, cells were incubated at 37°C for 18-24 hours, treated with the specified compound or vehicle (0.1% DMSO final) control, and incubated at 37°C an additional 72 hours. The effect of treatment on cell viability was determined using the luminescent Cell Titer Glo Assay (Promega).
HT-29 human colon adenocarcinoma cells were treated with compounds of the invention and grown under standard cell culture conditions. […]

Row | IC50 [µM] | Structure (SMILES)
1 | 34.5 | COC(=O)C(CC(C)C)NC(=O)C(C)c1ccc2cc(OC)ccc2c1 (centres unmarked) [VII]
2 | 29.4 | CCOC(=O)C(NC(=O)C(C)c1ccc2cc(OC)ccc2c1)C(C)C (centres unmarked) [XI]
3 | 121 | COC(=O)CC(NC(=O)C(C)c1ccc2cc(OC)ccc2c1)C(=O)OC (centres unmarked) [IX]
4 | 49.3 | CCOC(=O)C(CCSC)NC(=O)C(C)c1ccc2cc(OC)ccc2c1 (centres unmarked) [XII]
5 | 123 | CCOC(=O)CCNC(=O)C(C)c1ccc2cc(OC)ccc2c1 (centres unmarked) [IV]
